Measurements taken from patent publication US6605297B2, “Substances having antiobese and visceral fat-reducing functions and utilization thereof” (Janiftec, Inc., priority 1998, dated 2003).

Assays:
[1] = test system: mesenteric fat, perinephric fat, peritesticular fat, interscapular brown fat; test: 7-week feeding study in rats: weight of mesenteric, perinephric, peritesticular and interscapular brown fat; assay type: in vivo, Sprague-Dawley male rats; details: Example 3; 0.5% in feed plus 8.5% lard, rats 7 weeks
Procedure: (§1) After acclimation for 1 week on basic feed (F-2, Funabashi Farms Co., Ltd.) using 7-week-old Sprague-Dawley male rats, 7 rats per group were placed in the following 3 groups so that average body weight of each group would be the same and reared for 7 weeks. Rearing environment was adjusted to a temperature of 22 to 24° C. and humidity of 50 to 60%, with 12 hours of light and dark each (light time: 8:00 to 20:00, dark time: 20:00 to 8:00). Feed was supplied in restricted amounts and body weight was determined each week.
(§2) The components, including proteins, sugars, etc., were the same and the lipids were adjusted to 10% for each group. […]
(§3) After being reared for 7 weeks, the laboratory animals were fasted for 20 hours. […] Then mesenteric fat, perinephric fat, peritesticular fat, and interscapular brown fat were recovered and weighed and the brown fat was submitted to determinations of the amount of UCP. The plasma was obtained from blood by conventional methods and serum triglycerides, cholesterol, and phospholipid concentrations were determined. The amount of UCP was determined by the following method.
Then the mesenteric fat, perinephric fat, peritesticular fat, and interscapular brown fat were collected and weight was determined, and the brown fat was submitted to determinations of the amount of UCP.

[2] = 7-week feeding study in rats: body weight, feed ingested, symptoms; assay type: in vivo, Sprague-Dawley male rats; details: Example 3; 0.5% in feed plus 8.5% lard, rats 7 weeks
Procedure: as §1, §2, §3
With the exception that 8.5% lard was added to 0.5% starting DHA ethyl ester and served as the control group, and 8.5% lard was added to 0.5% coupled DHA ethyl ester and served as the coupled DHA ethyl group, the feed was in accordance with Example 1. […]

UCP = test: Amount of UCP in interscapular BAT mitochondria fraction by western blotting; assay type: in vivo, rat; details: Example 3; 0.5% in feed, rats 7 weeks; relative value, control group = 100
Procedure: as §3
Interscapular BAT extracted from rats was homogenized with 200 mM sucrose (comprising 10 mM Tris-HCl at pH of 7.5; 2 mM EDTA), centrifuged for 5 minutes at 3,100 rpm and 4° C. using a centrifugator on a cold table, and the supernatent thereof was further centrifuged for 10 minutes at 12,000 rpm and 4° C. The precipitate thus obtained (mitochondria fraction) was served as the sample.
Polyacrylamide gel electrophoresis was performed with 11% separated gel, and 50 μg sample protein were submitted to analysis from each lane. As the electrophoresis conditions, migration for 10 minutes at 100 V and then for 1 hour at 200 V were adopted. […] After rinsing, the UCP band was detected on X-ray film with a chemiluminescence method detection reagent (Dupont). The darkness of the band on the film was read with a scanner and digitized by a computer. […]

With `CC/C=C\C/C=C\C/C=C\C/C=C\C/C=C\C/C=C\CCC(=O)OCC` [Control group, DHA ethyl ester] the “Brown fat per body weight” value [1] was 0.073 ± 0.015%, the “Mesenteric fat per body weight” value [1] was 1.01 ± 0.20 b % and the “Total intra-abdominal fat per body weight” value [1] was 5.29 ± 0.93 b %. For the same molecule, the Body weight [2] was 515.8 ± 29 b g and the UCP (UCP) was 100 ± 8.
